In ChEMBL document CHEMBL1142794, “New alpha-methylene-gamma-butyrolactones with antimycobacterial properties” (2005):
In brackets after ≈: the same amount, converted by molar mass.

Key:
[1] = system: Mycobacterium tuberculosis variant bovis; experiment: In vitro minimum inhibitory concentration dissolved in DMSO against Mycobacterium bovis BCG using BACTEC 460 radiometric system; type: functional
[2] = system: Mycobacterium tuberculosis variant bovis; experiment: In vitro minimum inhibitory concentration dissolved in DMSO against Mycobacterium bovis BCG using BACTEC 460 radiometric system; Range=0.75-1.5 ug/mL; type: functional

Structure (SMILES)	MIC99 [1]	MIC99 [2]
C=CCNC(=O)[C@@H]1C(=C)C(=O)O[C@H]1CCCCCCCC	12.5 µg/mL (≈ 42.6 µM)	–
C=CCNC(=O)[C@H]1[C@H](CCCCCCCC)OC(=O)[C@H]1C	> 25 µg/mL	–
C=CCNC(=O)[C@@H]1C(=C)C(=O)O[C@H]1CCCC	12.5 µg/mL (≈ 52.7 µM)	–
C=C1C(=O)O[C@@H](CCCCCCCC)[C@@H]1C(=O)NCC(=O)O	> 25 µg/mL	–
C=C1C(=O)O[C@@H](CCCCCCCC)[C@@H]1C(=O)NNc1cccc(Cl)c1	> 25 µg/mL	–
C=C1C(=O)O[C@@H](CCCCCCCC)C1C(=O)O (stereo not given in full)	> 25 µg/mL	–
C=CCNC(=O)[C@@H]1C(=C)C(=O)O[C@H]1CCCCCC	12.5 µg/mL (≈ 47.1 µM)	–
CCCC[C@@H]1OC(=O)C(=O)C1C(=O)OC (stereo not given in full)	> 25 µg/mL	–
NNC(=O)c1ccncc1 [ISONIAZID]	0.1 µg/mL (≈ 0.729 µM)	–
CCCCCCCCCC[C@@H]1OC(=O)C(=O)C1C(=O)OC (stereo not given in full)	> 25 µg/mL	–
C=CCNC(=O)[C@@H]1C(=C)C(=O)O[C@H]1CCCCCCCCCCCC	6.25 µg/mL (≈ 17.9 µM)	–
CCCCCCCCCCS(=O)(=O)NC(C)=O	–	1.5 µg/mL (≈ 5.69 µM)
C=CCNC(=O)[C@H]1[C@H](CCCCCCCC)OC(=O)[C@@H]1C	> 25 µg/mL	–
C=C1C(=O)O[C@@H](CCCCCCCC)[C@@H]1C(=O)NCC(=O)OC	25 µg/mL (≈ 76.8 µM)	–
C=C1C(=O)O[C@@H](CCCCCCCC)C1C(=O)OC (stereo not given in full)	> 25 µg/mL	–
C=CCNC(=O)OCCNC(=O)[C@@H]1C(=C)C(=O)O[C@H]1CCCCCCCC	> 25 µg/mL	–
C=C1C(=O)O[C@@H](CCCCCCCC)[C@@H]1C(=O)NC/C=C/CC(=O)OC	25 µg/mL (≈ 68.4 µM)	–
C=C1C(=O)O[C@@H](CCCCCCCC)[C@@H]1C(=O)NCc1ccccc1	25 µg/mL (≈ 72.8 µM)	–
CCCCCCCC[C@@H]1OC(=O)C(=O)C1C(=O)OC (stereo not given in full)	> 25 µg/mL	–
C=C1C(=O)O[C@@H](CCCCCCCC)[C@@H]1C(=O)NCCO	25 µg/mL (≈ 84.1 µM)	–
